Experiment: xn = mol fraction of the nth substance listed
Conditions: 101 kPa, Liquid; for viscosity: Capillary tube (Ostwald / Ubbelohde) method

CN1CCOCC1 [N-methylmorpholine] + C1CCCCC1
Conditions | mass density, 313.15 K [kg/m3] | mass density, 323.15 K [kg/m3] | viscosity, 313.15 K [mPa·s] | viscosity, 323.15 K [mPa·s]
x2 = 0.0453 | 893.49 | 874.42 | 0.824 | 0.802
x2 = 0.1276 | 882.09 | 863.12 | 0.803 | 0.778
x2 = 0.1689 | 876.36 | 857.48 | 0.792 | 0.764
x2 = 0.2217 | 869.02 | 850.4 | 0.779 | 0.75
x2 = 0.2763 | 861.42 | 843.13 | 0.765 | 0.732
x2 = 0.3217 | 855.1 | 837.1 | 0.755 | 0.718
x2 = 0.3873 | 845.94 | 828.33 | 0.742 | 0.701
x2 = 0.4326 | 839.61 | 822.36 | 0.736 | 0.691
x2 = 0.4833 | 832.51 | 815.69 | 0.729 | 0.681
x2 = 0.5218 | 827.11 | 810.59 | 0.726 | 0.673
x2 = 0.5844 | 818.32 | 802.4 | 0.721 | 0.665
x2 = 0.6328 | 811.52 | 796.08 | 0.719 | 0.659
x2 = 0.6911 | 803.31 | 788.47 | 0.717 | 0.653
x2 = 0.7428 | 796.01 | 781.8 | 0.714 | 0.646
x2 = 0.7944 | 788.72 | 775.2 | 0.71 | 0.638
x2 = 0.8392 | 782.38 | 769.54 | 0.708 | 0.631
x2 = 0.8643 | 778.83 | 766.42 | 0.706 | 0.626
x2 = 0.9033 | 773.3 | 761.57 | 0.704 | 0.619
x2 = 0.9532 | 766.22 | 755.42 | 0.7 | 0.611
x2 = 0.9823 | 762.08 | 751.98 | 0.698 | 0.607

— the NIST ThermoML archive (doi:10.1016/j.jct.2007.11.002)
